Measured values reported in patent US20230390353A1, “PHARMACEUTICAL COMPOSITION FOR TREATING MYOCARDIAL ISCHEMIA AND PREPARATION METHOD THEREFOR” (TASLY PHARMACEUTICAL GROUP CO., LTD., priority 2021, published 2023).

Assays:
normal mice = assay: Weight-bearing swimming time in normal mice; assay type: in vivo; details: normal BALB/c mice, 7 days pre-administration, 30 min after last administration, 5% body weight load; ranolazine 205 mg/kg, traditional Chinese medicine 68 mg/kg, composition 34 + ranolazine 102 mg/kg
Experimental: According to the reference, 40 male mice are randomly divided into 4 groups (n=10): a normal group, a ranolazine group, a traditional Chinese medicine group and a pharmaceutical composition group of the present invention are administered in advance for 7 days, and the mice in the normal group are administered intragastrically with equivalent distilled water. Swimming tests are performed 30 min after the last administration. Mice are fixed a 5% weight of its body weight on the tail, and then placed in a large container filled with water of about 20 cm. Water should not be overfilled, so as to prevent mice from jumping out. The mice are forced to swim to exhaustion until they swim to death, and the time is recorded as the weight-bearing swimming time of the mice. See Table 5 for grouping and dose setting.

[1] = system: rats with myocardial ischemia; assay: Weight-bearing swimming duration test in rats with myocardial ischemia; assay type: in vivo, SD rats; details: gavage, Day 30, 60 min after dose, 5% load
Text: 110 experimental animals were purchased, of which 10 animals were set as a sham-operation group, and 100 animals were used for modeling left anterior descending coronary artery ligation. After modeling, surviving rats were randomly divided into a vehicle control group, a traditional Chinese medicine group, a ranolazine group 1, a ranolazine group 2, a ranolazine group 3, a pharmaceutical composition group 1 of the present invention and a pharmaceutical composition group 2 of the present invention according to body weight. After therapeutic administration for 28 days, the rats from the vehicle control group were given the same amount of menstruum by gavage. On the 28th day of intragastric administration, 6 rats in each group were randomly selected for echocardiography. After intragastric administration of 60 min on Day 30, a weight-bearing swimming test was performed, and animal samples were taken after the end of weight-bearing swimming. After intragastric administration of 60 min on Day 30, the experimental animals were subjected to the weight-bearing swimming test. After weighing, the rats, fixed a 5% weight of its body weight on the tail were placed in a transparent container filled with water with an inner diameter of 19 cm and a water depth of 30 cm. The water temperature was 25±2° C. The rats swimming to exhaustion were judged by the standard of losing balance and the head submerged for more than 10 seconds. The time of swimming was recorded as the time of weight-bearing swimming.

[2] = system: rats with myocardial ischemia; assay: Echocardiography (cardiac function) in rats with myocardial ischemia; assay type: in vivo, SD rats; details: Day 28, 60 min after gavage
Text: After modeling, surviving rats were randomly divided into a vehicle control group, a traditional Chinese medicine group, a ranolazine group 1, a ranolazine group 2, a ranolazine group 3, a pharmaceutical composition group 1 of the present invention and a pharmaceutical composition group 2 of the present invention according to body weight. After therapeutic administration for 28 days, the rats from the vehicle control group were given the same amount of menstruum by gavage. On the 28th day of intragastric administration, 6 rats in each group were randomly selected for echocardiography. After intragastric administration of 60 min on Day 30, a weight-bearing swimming test was performed, and animal samples were taken after the end of weight-bearing swimming. After intragastric administration of 60 min on Day 28, 6 rats in each group were randomly selected, and the cardiac function was detected by a portable b-ultrasound instrument. The changes of cardiac ejection fraction (EF) and E/A were detected.

myocardial Na^+—K^+-ATP = assay: Energy metabolism related enzyme detection, myocardial Na+-K+-ATP activity; assay type: in vivo, SD rats; details: myocardium of myocardial ischemia rats after treatment
Text: (§1) 110 experimental animals were purchased, of which 10 animals were set as a sham-operation group, and 100 animals were used for modeling left anterior descending coronary artery ligation. After modeling, surviving rats were randomly divided into a vehicle control group, a traditional Chinese medicine group, a ranolazine group 1, a ranolazine group 2, a ranolazine group 3, a pharmaceutical composition group 1 of the present invention and a pharmaceutical composition group 2 of the present invention according to body weight. After therapeutic administration for 28 days, the rats from the vehicle control group were given the same amount of menstruum by gavage. On the 28th day of intragastric administration, 6 rats in each group were randomly selected for echocardiography. After intragastric administration of 60 min on Day 30, a weight-bearing swimming test was performed, and animal samples were taken after the end of weight-bearing swimming.

[3] = system: myocardial Ca^2+—Mg^2+-ATP; assay: Energy metabolism related enzyme detection, myocardial Ca2+-Mg2+-ATP activity; assay type: in vivo, SD rats; details: myocardium of myocardial ischemia rats after treatment
Text: as §1

[4] = system: rats with myocardial ischemia; assay: Myocardial histopathology detection in rats with myocardial ischemia; assay type: in vivo, SD rats; details: myocardial pathology
Text: as §1, with “swimming. […] The administration of the pharmaceutical composition of the present invention could reduce myocardial fibrosis to varying degrees, causing a certain protective effect on the ischemic myocardium, and the effect of the pharmaceutical composition group 2 of the present invention was better.” for “swimming.”

**Q.** For `COc1ccccc1OCC(O)CN1CCN(CC(=O)Nc2c(C)cccc2C)CC1` (racemic) [Ranolazine, (±)-N-(2,6-dimethylphenyl)-4-[2-hydroxy-3-(2-methoxyphenoxy)propyl]-1-piperazine acetamide], which Swimming time (normal mice) is on record?
**A.** 3746 ± 1837 s

**Q.** What about the Weight-bearing swimming duration ([1]; ranolazine group 1, 100 mg/kg) of the same compound?
**A.** 1927 ± 1450 s

**Q.** And the Weight-bearing swimming duration ([1]; ranolazine group 2, 50 mg/kg)?
**A.** 1268 ± 513 s

**Q.** And the Weight-bearing swimming duration ([1]; ranolazine group 3, 25 mg/kg)?
**A.** 1108 ± 358 s

**Q.** And the E/A ([2]; ranolazine group 1, 100 mg/kg)?
**A.** 1.10 ± 0.09

**Q.** What about the “Ejection Fraction (EF %)” value ([2]; ranolazine group 1, 100 mg/kg) of the same compound?
**A.** 55.32 ± 2.76 %

**Q.** And the E/A ([2]; ranolazine group 2, 50 mg/kg)?
**A.** 1.06 ± 0.13

**Q.** What about the “Ejection Fraction (EF %)” value ([2]; ranolazine group 2, 50 mg/kg) of the same compound?
**A.** 50.52 ± 2.15 %

**Q.** And the E/A ([2]; ranolazine group 3, 25 mg/kg)?
**A.** 0.92 ± 0.08

**Q.** What about the “Ejection Fraction (EF %)” value ([2]; ranolazine group 3, 25 mg/kg) of the same compound?
**A.** 45.03 ± 1.57 %

**Q.** What about the “Na^+—K^+-ATP” value (myocardial Na^+—K^+-ATP; ranolazine group 1, 100 mg/kg) of the same compound?
**A.** 46.04 ± 8.57 µmol/h/g

**Q.** What about the “Na^+—K^+-ATP” value (myocardial Na^+—K^+-ATP; ranolazine group 2, 50 mg/kg) of the same compound?
**A.** 47.10 ± 6.57 µmol/h/g

**Q.** And the “Na^+—K^+-ATP” value (myocardial Na^+—K^+-ATP; ranolazine group 3, 25 mg/kg)?
**A.** 34.98 ± 9.26 µmol/h/g

**Q.** And the “Ca^2+—Mg^2+-ATP” value ([3]; ranolazine group 1, 100 mg/kg)?
**A.** 37.99 ± 8.20 µmol/h/g

**Q.** And the “Ca^2+—Mg^2+-ATP” value ([3]; ranolazine group 2, 50 mg/kg)?
**A.** 50.92 ± 6.18 µmol/h/g

**Q.** And the “Ca^2+—Mg^2+-ATP” value ([3]; ranolazine group 3, 25 mg/kg)?
**A.** 29.96 ± 7.66 µmol/h/g

**Q.** And the “Basically normal (number of cases)” value ([4]; ranolazine group 1, 100 mg/kg)?
**A.** 4 number of cases

**Q.** And the “Mild (cardiac muscle fiber partially replaced by collagen fiber)” value (shortened to “Mild”) ([4]; ranolazine group 1, 100 mg/kg)?
**A.** 1 number of cases

**Q.** And the “Severe (decreased myocardial thickness, and occurrence of transmural myocardial infarction)” value ([4]; ranolazine group 1, 100 mg/kg)?
**A.** 1 number of cases

**Q.** And the “Basically normal (number of cases)” value ([4]; ranolazine group 2, 50 mg/kg)?
**A.** 3 number of cases

**Q.** What about the “Mild” value ([4]; ranolazine group 2, 50 mg/kg) of the same compound?
**A.** 1 number of cases

**Q.** And the “Severe (decreased myocardial thickness, and occurrence of transmural myocardial infarction)” value ([4]; ranolazine group 2, 50 mg/kg)?
**A.** 2 number of cases

**Q.** What about the “Basically normal (number of cases)” value ([4]; ranolazine group 3, 25 mg/kg) of the same compound?
**A.** 2 number of cases

**Q.** And the “Mild” value ([4]; ranolazine group 3, 25 mg/kg)?
**A.** 2 number of cases

**Q.** What about the “Severe (decreased myocardial thickness, and occurrence of transmural myocardial infarction)” value ([4]; ranolazine group 3, 25 mg/kg) of the same compound?
**A.** 2 number of cases
